We go through five compounds from ChEMBL document CHEMBL3792286, “A convenient and efficient approach to polyfluorosalicylic acids and their tuberculostatic activity” (Bioorg Med Chem Lett, 2016).

Assay [1] has as its system Mycobacterium tuberculosis. In words: microbe, parasite or virus in culture. The settings on record: 240 h.
Assay [2] relates to Mycobacterium tuberculosis.

Molecules are shown by their SMILES. In brackets after ≈: the same amount, converted by molar mass. Activity calls are given as the source filed them. The calls are words filed in the database; no cut-off is given here.

The compound `O=C(O)c1cc(F)c(F)cc1O` returned an MIC in assay [1] of 0.7 µg/mL (≈ 4.02 µM). With `NNC(=O)c1ccncc1` [ISONIAZID], in assay [2], the MIC entry was “inactive”. For `O=C(O)c1ccc(F)c(F)c1O`, the MIC in assay [1] was found to be 1.5 µg/mL (≈ 8.62 µM). In assay [1], `CC1COc2c(N3CCN(C)CC3)c(F)cc3c(=O)c(C(=O)O)cn1c23` (stereo not given) [OFLOXACIN] displayed an MIC of 0.1 µg/mL (≈ 0.277 µM). In turn, `O=C(O)c1c(O)c(F)c(F)c(F)c1F` showed an MIC in assay [1] of 0.7 µg/mL (≈ 3.33 µM).
